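Results reflect a 48-hour exposure of cells in 96-well plates to compound at five concentrations. Abbreviation: GI50, concentration required for 50% inhibition of growth.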 The source made the active and inactive calls. No stated cut-off is given here; in the data, active = GI50 up to about 1.1 µM and inactive = higher.
Tests used:
Experiment in all cases: inhibition of tumour cell growth, NCI panel, 48 h
K562 = test system: K562
786-0 = test system: 786-0
A498 = test system: A498
HCC 2998 = test system: HCC 2998
NCI-H226 = test system: NCI-H226
HT-29 = test system: HT-29
HCT-116 = test system: HCT-116
SK-MEL-2 = test system: SK-MEL-2
Malme-3M = test system: Malme-3M
PC-3 = test system: PC-3
SK-MEL-5 = test system: SK-MEL-5
SK-MEL-28 = test system: SK-MEL-28
NCI/ADR-RES = test system: NCI/ADR-RES
MOLT-4 = test system: MOLT-4
SN12C = test system: SN12C
DU-145 = test system: DU-145
CAKI-1 = test system: CAKI-1
RXF 393 = test system: RXF 393
RPMI-8226 = test system: RPMI-8226
UACC-62 = test system: UACC-62
IGROV-1 = test system: IGROV-1
COLO 205 = test system: COLO 205
T47D = test system: T47D
MDA-MB-435 = test system: MDA-MB-435
Hs-578T = test system: Hs-578T
SF-268 = test system: SF-268
KM12 = test system: KM12
U-251 = test system: U-251
BT-549 = test system: BT-549
SR = test system: SR
HCT-15 = test system: HCT-15
OVCAR-4 = test system: OVCAR-4
HL-60 = test system: HL-60
M14 = test system: M14
ACHN = test system: ACHN
OVCAR-3 = test system: OVCAR-3
CCRF-CEM = test system: CCRF-CEM
A549 = test system: A549
TK-10 = test system: TK-10
MDA-MB-231 = test system: MDA-MB-231
UACC-257 = test system: UACC-257
SW-620 = test system: SW-620
OVCAR-5 = test system: OVCAR-5
MDA-N = test system: MDA-N
UO-31 = test system: UO-31
OVCAR-8 = test system: OVCAR-8
SNB-75 = test system: SNB-75
SF-295 = test system: SF-295
SNB-19 = test system: SNB-19
NCI-H460 = test system: NCI-H460
EKVX = test system: EKVX
HOP-92 = test system: HOP-92
NCI-H522 = test system: NCI-H522
SK-OV-3 = test system: SK-OV-3
NCI-H23 = test system: NCI-H23
LOX IMVI = test system: LOX IMVI
SF-539 = test system: SF-539
HOP-62 = test system: HOP-62
MCF7 = test system: MCF7

Measured: GI50

CC(=O)Nc1c(S(=O)(=O)c2ccccc2)c(C)c(C)n1Cc1ccccc1
> 100 µM: HCT-15
inactive: K562 > 100 µM | 786-0 > 100 µM | A498 > 100 µM | HCC 2998 > 100 µM | NCI-H226 > 100 µM | HT-29 > 100 µM | HCT-116 > 100 µM | SK-MEL-2 > 100 µM | Malme-3M > 100 µM | PC-3 44.9 µM | SK-MEL-5 83.8 µM | SK-MEL-28 > 100 µM | NCI/ADR-RES > 100 µM | MOLT-4 > 100 µM | SN12C > 100 µM | DU-145 > 100 µM | CAKI-1 > 100 µM | RXF 393 > 100 µM | RPMI-8226 > 100 µM | UACC-62 > 100 µM | IGROV-1 > 100 µM | COLO 205 > 100 µM | T47D > 10 µM | MDA-MB-435 > 100 µM | Hs-578T > 100 µM | SF-268 > 100 µM | KM12 49.2 µM | U-251 > 100 µM | BT-549 > 100 µM | SR > 10 µM | OVCAR-4 > 100 µM | HL-60 > 100 µM | M14 > 100 µM | ACHN > 100 µM | OVCAR-3 52.8 µM | CCRF-CEM > 100 µM | A549 > 100 µM | TK-10 > 100 µM | MDA-MB-231 > 100 µM | UACC-257 > 100 µM | SW-620 > 100 µM | OVCAR-5 > 100 µM | MDA-N > 100 µM | UO-31 > 100 µM | OVCAR-8 > 100 µM | SNB-75 > 100 µM | SF-295 > 100 µM | SNB-19 > 100 µM | NCI-H460 > 100 µM | EKVX > 100 µM | HOP-92 > 100 µM | NCI-H522 > 100 µM | SK-OV-3 > 100 µM | NCI-H23 > 100 µM

CCCCn1cnnc1NS(=O)(=O)c1cc(C)c(Cl)cc1SCC(=O)O
inactive: K562 > 10 µM | 786-0 > 10 µM | LOX IMVI > 10 µM | A498 > 10 µM | HCC 2998 > 10 µM | NCI-H226 > 10 µM | HT-29 > 10 µM | HCT-116 > 10 µM | SK-MEL-2 > 10 µM | Malme-3M > 10 µM | SF-539 > 10 µM | PC-3 > 10 µM | SK-MEL-5 > 10 µM | SK-MEL-28 > 10 µM | NCI/ADR-RES > 10 µM | MOLT-4 > 10 µM | SN12C > 10 µM | DU-145 > 10 µM | CAKI-1 > 10 µM | RXF 393 > 10 µM | RPMI-8226 > 10 µM | UACC-62 > 10 µM | IGROV-1 > 10 µM | COLO 205 > 10 µM | T47D > 10 µM | MDA-MB-435 > 10 µM | Hs-578T > 10 µM | SF-268 > 10 µM | KM12 > 10 µM | U-251 > 10 µM | BT-549 > 10 µM | OVCAR-4 > 10 µM | HL-60 > 10 µM | M14 > 10 µM | ACHN > 10 µM | OVCAR-3 > 10 µM | CCRF-CEM > 10 µM | A549 > 10 µM | TK-10 > 10 µM | MDA-MB-231 > 10 µM | UACC-257 > 10 µM | SW-620 > 10 µM | OVCAR-5 > 10 µM | MDA-N > 10 µM | UO-31 > 10 µM | OVCAR-8 > 10 µM | SNB-75 > 10 µM | SF-295 > 10 µM | SNB-19 > 10 µM | NCI-H460 > 10 µM | EKVX > 10 µM | HOP-62 > 10 µM | NCI-H522 > 10 µM | SK-OV-3 > 10 µM | NCI-H23 > 10 µM
> 10 µM: HCT-15

c1ccc(/N=C2\C(=N/c3ccccc3)N(C3CCCCC3)/C(=N\C3CCCCC3)N2c2ccccc2)cc1
> 100 µM: HCT-15
inactive: K562 > 100 µM | 786-0 > 100 µM | A498 > 100 µM | HCC 2998 > 100 µM | NCI-H226 > 100 µM | HT-29 > 100 µM | HCT-116 > 100 µM | SK-MEL-2 > 100 µM | Malme-3M > 100 µM | PC-3 > 100 µM | SK-MEL-5 > 100 µM | SK-MEL-28 > 100 µM | MOLT-4 > 100 µM | SN12C > 10 µM | RXF 393 > 100 µM | RPMI-8226 > 100 µM | IGROV-1 > 100 µM | COLO 205 > 100 µM | T47D 49.9 µM | Hs-578T > 100 µM | KM12 > 100 µM | U-251 > 100 µM | BT-549 > 100 µM | SR > 100 µM | HL-60 > 100 µM | M14 > 100 µM | ACHN > 100 µM | A549 > 100 µM | TK-10 > 100 µM | MDA-MB-231 > 100 µM | UACC-257 > 100 µM | SW-620 > 100 µM | OVCAR-5 > 100 µM | MDA-N > 100 µM | UO-31 > 100 µM | OVCAR-8 > 100 µM | SNB-75 > 100 µM | SNB-19 > 100 µM | NCI-H460 > 100 µM | EKVX > 100 µM | HOP-92 > 100 µM | HOP-62 > 100 µM | MCF7 > 100 µM | NCI-H23 > 100 µM

— ChEMBL document CHEMBL1201862, “PubChem BioAssay data set” (2004)
